The experiment has as its target CgaA (cytosolic glutathione amidotransferase A; FTN_0435) (Francisella tularensis, UniProt A0Q523). The settings on record: 10 mM substrate, 1 uM enzyme, 60 min, 300 mM NaCl, 50 mM Tris-Cl pH 8.5, 37 °C.

Chain of CgaA (cytosolic glutathione amidotransferase A; FTN_0435) (A0Q523 1-235): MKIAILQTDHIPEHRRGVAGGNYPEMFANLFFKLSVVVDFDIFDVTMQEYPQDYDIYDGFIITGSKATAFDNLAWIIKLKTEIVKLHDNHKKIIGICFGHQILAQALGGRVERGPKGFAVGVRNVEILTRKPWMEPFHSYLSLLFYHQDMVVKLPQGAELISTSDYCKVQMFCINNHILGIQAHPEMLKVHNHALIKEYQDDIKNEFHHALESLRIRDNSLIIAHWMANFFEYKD

As to `NC(=O)CC[C@H](N)C(=O)O` [Gln, glutamine], the “glutamate release, coupled colorimetric kit (A450)” value is “we detected only a low level of glutamate accumulation following incubation of CgaA with glutamine”.

(Values after PMC10763578 (Cell host & microbe, 2023).)
